Data on 18 molecules can be found in patent publication US20240058464A1 (Fortis Therapeutics, Inc., priority 2021, published 2024).

Assay [1] has as its system CD46 expression. Description: CD46 expression by RNA-sequencing in paired tumor biopsies before and after therapy.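 As to all read-outs here: FFPE human tumor biopsies, exome-capture RNA-seq, reads aligned to GRCh37, counts normalized for GC content, length and depth, summed per gene, log2-transformed, samples paired before versus after therapy.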 The note with it: for CD46 expression diff (post minus pre) / Percent Change in CD46 expression / CD46 expression, Post-Treatment Biopsy: paired biopsies; for CD46 expression, Post-Treatment Biopsy: RNA-seq log2-transformed counts.
The test system of assay [2] is CD46 expression. Description: CD46 expression by RNA-sequencing in unpaired pre-treatment and post-treatment tumor biopsies. Format: in vivo, human.
Where [3] appears, read: Prostate Cancer, Post minus Pre, unpaired biopsies, log2-transformed counts.
Where [4] appears, read: Prostate Cancer, post- vs pre-treatment unpaired biopsies.
Where [5] appears, read: Breast Cancer, Post minus Pre, unpaired biopsies, log2-transformed counts.
[6] abbreviates: Breast Cancer, post- vs pre-treatment unpaired biopsies.
Where [7] appears, read: Breast Cancer, post-treatment biopsies, unpaired, RNA-seq log2-transformed normalized counts.
[8] abbreviates: Colorectal Cancer, Post minus Pre, unpaired biopsies, log2-transformed counts.
Where [9] appears, read: Colorectal Cancer, post- vs pre-treatment unpaired biopsies.
The mark [10] stands for this setting: Colorectal Cancer, post-treatment biopsies, unpaired, RNA-seq log2-transformed normalized counts.
[11] abbreviates: Sarcoma, Post minus Pre, unpaired biopsies, log2-transformed counts.
Where [12] appears, read: Sarcoma, post- vs pre-treatment unpaired biopsies.
Setting [13] is: Sarcoma, post-treatment biopsies, unpaired, RNA-seq log2-transformed normalized counts.
The mark [14] stands for this setting: Non-Small Cell Lung Cancer, post minus pre, unpaired biopsies.
[15] abbreviates: Non-Small Cell Lung Cancer, post vs pre, unpaired biopsies.
Setting [16] is: Non-Small Cell Lung Cancer, post-treatment biopsies, log2-transformed RNA-seq counts.

`C[C@]12CC[C@H](O)CC1=CC[C@@H]1[C@@H]2CC[C@]2(C)C(c3cccnc3)=CC[C@@H]12` [abiraterone]: in the assay with CD46 expression [1] (Prostate Cancer), the “CD46 expression diff (post minus pre)” value stood at 0.29 and the “Percent Change in CD46 expression” value amounted to 5.1%. Further, in the assay with CD46 expression [2] (setting [3]), the CD46 expression diff is listed as −0.07. The “CD46 expression Percentage change” value in the assay on CD46 expression [2] (setting [4]) is −1.1%. In addition, in the assay with CD46 expression [2] (Prostate Cancer, post-treatment biopsies, unpaired, RNA-seq log2-transformed normalized counts), the “CD46 expression Post” value was determined as 6.10.

Turning to `Cc1nc(NC(=O)N2CCC[C@H]2C(N)=O)sc1-c1ccnc(C(C)(C)C(F)(F)F)c1` [alpelisib], in the assay on CD46 expression [1] (Breast Cancer), the “CD46 expression diff (post minus pre)” value is reported as −0.01; the “Percent Change in CD46 expression” value was −0.1%; the “CD46 expression, Post-Treatment Biopsy” value was found to be 6.57. Further, the CD46 expression diff in the assay on CD46 expression [2] (setting [5]) was 0.13. Besides, in the assay with CD46 expression [2] (setting [6]), the “CD46 expression Percentage change” value turned out to be 2.0%. For the same molecule, the “CD46 expression Post” value in the assay on CD46 expression [2] (setting [7]) is reported as 6.67.

For `CC(C)(C#N)c1cc(Cn2cncn2)cc(C(C)(C)C#N)c1` [anastrozole], in the assay on CD46 expression [1] (Breast Cancer), the “CD46 expression diff (post minus pre)” value is 0.41; the “Percent Change in CD46 expression” value was found to be 6.7%; the “CD46 expression, Post-Treatment Biopsy” value is reported as 6.49. Further, in the assay on CD46 expression [1] (breast cancer, 15 of 19 subjects, FIG. 3), the “subjects whose paired biopsies showed increased CD46 expression” value was 79%. For the same molecule, in the assay on CD46 expression [2] (setting [5]), the CD46 expression diff worked out at 0.06. The “CD46 expression Percentage change” value with CD46 expression [2] (setting [6]) is listed as 0.9%. Moreover, the “CD46 expression Post” value in the assay on CD46 expression [2] (setting [7]) came out at 6.41.

`CC(O)(CS(=O)(=O)c1ccc(F)cc1)C(=O)Nc1ccc(C#N)c(C(F)(F)F)c1` (stereo not shown) [bicalutamide]: in the assay with CD46 expression [1] (Prostate Cancer), the “CD46 expression diff (post minus pre)” value is reported as −0.24; the “Percent Change in CD46 expression” value is listed as −3.8%; the “CD46 expression, Post-Treatment Biopsy” value was found to be 6.08. In addition, the CD46 expression diff in the assay with CD46 expression [2] (setting [3]) is −0.06. In addition, the “CD46 expression Percentage change” value in the assay with CD46 expression [2] (setting [4]) was −0.9%.

`CO[C@H]1C(=O)[C@]2(C)[C@@H](OC)C[C@H]3OC[C@@]3(OC(C)=O)[C@H]2[C@H](OC(=O)c2ccccc2)[C@]2(O)C[C@H](OC(=O)[C@H](O)[C@@H](NC(=O)OC(C)(C)C)c3ccccc3)C(C)=C1C2(C)C` [cabazitaxel]: in the assay on CD46 expression [1] (Prostate Cancer), the “CD46 expression diff (post minus pre)” value amounted to 0.07; the “Percent Change in CD46 expression” value is given as 1.2%; the “CD46 expression, Post-Treatment Biopsy” value came to 5.93. Also, the CD46 expression diff in the assay with CD46 expression [2] (setting [3]) worked out at 0.09. Moreover, the “CD46 expression Percentage change” value with CD46 expression [2] (setting [4]) amounted to 1.6%.

In the case of `CCCCCOC(=O)Nc1nc(=O)n([C@@H]2O[C@H](C)[C@@H](O)[C@H]2O)cc1F` [capecitabine], the “CD46 expression diff (post minus pre)” value in the assay with CD46 expression [1] (Breast Cancer) was −0.06; with CD46 expression [1] (Colorectal Cancer), 0.06; in the assay with CD46 expression [1] (Pancreatic Cancer), 0.16. Also, the “Percent Change in CD46 expression” value is −0.9% in the assay with CD46 expression [1] (Breast Cancer), 1.0% in the assay with CD46 expression [1] (Colorectal Cancer) and 2.8% in the assay with CD46 expression [1] (Pancreatic Cancer). Besides, the results for the “CD46 expression, Post-Treatment Biopsy” value with CD46 expression [1] (Breast Cancer) and in the assay on CD46 expression [1] (Pancreatic Cancer) were 6.23 and 5.98, respectively. The CD46 expression diff with CD46 expression [2] (Biliary Cancer, Post minus Pre, unpaired biopsies, log2-transformed counts) is on record as 0.10; in the assay on CD46 expression [2] (setting [5]), −0.07; with CD46 expression [2] (setting [8]) it was 0.05; in the assay with CD46 expression [2] (Endocrine Tumor, Post minus Pre, unpaired biopsies, log2-transformed counts), 0.06; in the assay on CD46 expression [2] (Esophageal Cancer, Post minus Pre, unpaired biopsies, log2-transformed counts), 0.05; with CD46 expression [2] (Gastric Cancer, Post minus Pre, unpaired biopsies, log2-transformed counts), −0.04. The CD46 expression diff with CD46 expression [2] (Pancreatic Cancer, Post minus Pre, unpaired biopsies, log2-transformed counts) was found to be 0.07. Further, the “CD46 expression Percentage change” value in the assay with CD46 expression [2] (Biliary Cancer, post- vs pre-treatment unpaired biopsies) is 1.8%; in the assay on CD46 expression [2] (setting [6]), −1.2%; with CD46 expression [2] (setting [9]), 0.8%; with CD46 expression [2] (Endocrine Tumor, post- vs pre-treatment unpaired biopsies), 1.1%; with CD46 expression [2] (Esophageal Cancer, post- vs pre-treatment unpaired biopsies), 0.8%; in the assay on CD46 expression [2] (Gastric Cancer, post- vs pre-treatment unpaired biopsies), −0.7%. In addition, the “CD46 expression Percentage change” value with CD46 expression [2] (Pancreatic Cancer, post- vs pre-treatment unpaired biopsies) is 1.2%. The “CD46 expression Post” value with CD46 expression [2] (Biliary Cancer, post-treatment biopsies, unpaired, RNA-seq log2-transformed normalized counts) is 5.87; with CD46 expression [2] (setting [7]) it was 6.15; with CD46 expression [2] (setting [10]), 6.43; in the assay with CD46 expression [2] (Endocrine Tumor, post-treatment biopsies, unpaired, RNA-seq log2-transformed normalized counts), 5.66; in the assay on CD46 expression [2] (Esophageal Cancer, post-treatment biopsies, unpaired, RNA-seq log2-transformed normalized counts) it was 6.02; with CD46 expression [2] (Gastric Cancer, post-treatment biopsies, unpaired, RNA-seq log2-transformed normalized counts) it was 5.73. For the same molecule, the “CD46 expression Post” value with CD46 expression [2] (Pancreatic Cancer, post-treatment biopsies, unpaired, RNA-seq log2-transformed normalized counts) is on record as 5.93.

In the case of `COc1cc2c(cc1O)CCN[C@]21CS[C@@H]2c3c(OC(C)=O)c(C)c4c(c3[C@H](COC1=O)N1[C@@H]2[C@H]2c3c(cc(C)c(OC)c3O)C[C@@H]([C@@H]1O)N2C)OCO4` [trabectedin], the CD46 expression diff with CD46 expression [2] (setting [11]) was found to be 0.00. Also, in the assay on CD46 expression [2] (setting [12]), the “CD46 expression Percentage change” value was −0.1%. Also, the “CD46 expression Post” value in the assay with CD46 expression [2] (setting [13]) is listed as 5.23.

Regarding `CC(=O)Nc1cccc(-n2c(=O)n(C3CC3)c(=O)c3c(Nc4ccc(I)cc4F)n(C)c(=O)c(C)c32)c1` [trametinib], the CD46 expression diff in the assay with CD46 expression [2] (Melanoma, Post minus Pre, unpaired biopsies, log2-transformed counts) is 0.08. For the same molecule, the “CD46 expression Percentage change” value in the assay on CD46 expression [2] (Melanoma, post- vs pre-treatment unpaired biopsies) came out at 1.4%. Also, in the assay with CD46 expression [2] (Melanoma, post-treatment biopsies, unpaired, RNA-seq log2-transformed normalized counts), the “CD46 expression Post” value came to 5.39.

Turning to `CC[C@]1(O)C[C@@H]2CN(CCc3c([nH]c4ccccc34)[C@@](C(=O)OC)(c3cc4c(cc3OC)N(C)[C@H]3[C@@](O)(C(=O)OC)[C@H](OC(C)=O)[C@]5(CC)C=CCN6CC[C@]43[C@@H]65)C2)C1` [vinblastine], in the assay on CD46 expression [2] (Bladder Cancer, post minus pre, unpaired biopsies), the CD46 expression diff was −0.24. Further, the “CD46 expression Percentage change” value in the assay with CD46 expression [2] (Bladder Cancer, post vs pre, unpaired biopsies) is given as −3.9%. In addition, the “CD46 expression Post” value in the assay on CD46 expression [2] (Bladder Cancer, post-treatment biopsies, log2-transformed RNA-seq counts) worked out at 5.89.

As for `CC[C@]1(O)C[C@H]2CN(CCc3c([nH]c4ccccc34)[C@@](C(=O)OC)(c3cc4c(cc3OC)N(C=O)[C@H]3[C@@](O)(C(=O)OC)[C@H](OC(C)=O)[C@]5(CC)C=CCN6CC[C@]43[C@@H]65)C2)C1` [vincristine], the CD46 expression diff in the assay with CD46 expression [2] (setting [11]) was −0.03. In addition, the “CD46 expression Percentage change” value in the assay with CD46 expression [2] (setting [12]) was −0.5%. Also, the “CD46 expression Post” value with CD46 expression [2] (setting [13]) came to 5.09.

Take `CCC1=C[C@@H]2CN(C1)Cc1c([nH]c3ccccc13)[C@@](C(=O)OC)(c1cc3c(cc1OC)N(C)[C@H]1[C@@](O)(C(=O)OC)[C@H](OC(C)=O)[C@]4(CC)C=CCN5CC[C@]31[C@@H]54)C2` [vinorelbine]: the figures for the CD46 expression diff in the assay with CD46 expression [2] (setting [5]) and with CD46 expression [2] (setting [14]) were −0.13 and −0.20, respectively. In addition, the “CD46 expression Percentage change” value in the assay on CD46 expression [2] (setting [6]) is listed as −2.0%; in the assay with CD46 expression [2] (setting [15]), −3.3%. For the same molecule, the figures for the “CD46 expression Post” value with CD46 expression [2] (setting [7]) and in the assay with CD46 expression [2] (setting [16]) were 6.24 and 5.98, respectively.

As to `O=P(O)(O)C(O)(Cn1ccnc1)P(=O)(O)O` [zoledronic acid], the CD46 expression diff in the assay with CD46 expression [2] (setting [5]) came out at 0.41. Moreover, the “CD46 expression Percentage change” value in the assay on CD46 expression [2] (setting [6]) is given as 6.4%. Besides, the “CD46 expression Post” value with CD46 expression [2] (setting [7]) turned out to be 6.78.

Take ado-trastuzumab emtansine: in the assay with CD46 expression [2] (in vivo), the “CD46 expression Percentage change” value is reported as −0.8%, the “CD46 expression Post” value was determined as 6.20 and the CD46 expression diff is given as −0.05.

With aflibercept, in the assay with CD46 expression [2] (setting [8]), the CD46 expression diff was 0.21. The “CD46 expression Percentage change” value with CD46 expression [2] (setting [9]) worked out at 3.3%. For the same molecule, the “CD46 expression Post” value in the assay with CD46 expression [2] (setting [10]) is recorded as 6.58.

denosumab: the CD46 expression diff with CD46 expression [2] (setting [5]) is given as 0.40. Moreover, the “CD46 expression Percentage change” value in the assay on CD46 expression [2] (setting [6]) is listed as 6.2%. Moreover, in the assay on CD46 expression [2] (setting [7]), the “CD46 expression Post” value amounted to 6.82.

For olaratumab, in the assay on CD46 expression [2] (setting [11]), the CD46 expression diff came out at 0.11. Further, in the assay with CD46 expression [2] (setting [12]), the “CD46 expression Percentage change” value turned out to be 2.3%. Also, in the assay on CD46 expression [2] (setting [13]), the “CD46 expression Post” value is on record as 5.10.

In the case of pertuzumab, the CD46 expression diff in the assay with CD46 expression [2] (setting [5]) is on record as −0.08. Moreover, the “CD46 expression Percentage change” value in the assay with CD46 expression [2] (setting [6]) is −1.3%. Besides, the “CD46 expression Post” value in the assay on CD46 expression [2] (setting [7]) was 6.25.

ramucirumab: the CD46 expression diff with CD46 expression [2] (setting [14]) is recorded as −0.17. Moreover, the “CD46 expression Percentage change” value in the assay on CD46 expression [2] (setting [15]) is −2.8%. Further, the “CD46 expression Post” value in the assay with CD46 expression [2] (setting [16]) is reported as 6.13. Moreover, the “CD46 expression Pre” value in the assay with CD46 expression [2] (Non-Small Cell Lung Cancer, pre-treatment biopsies, log2-transformed RNA-seq counts) stood at 6.30.
